Source: ChEMBL document CHEMBL1123728, “Rational design of 4-[(methylsulfonyl)amino]benzamides as class III antiarrhythmic agents” (J Med Chem, 1987)
The source made the active and inactive calls.

Assays:
Canis familiaris [1] = organism: Canis familiaris; test: Concentration required for 20% increase in the functional refractory period of canine ventricular muscle (extracellular electrophysiology) in vitro was reported. Range is between 0.05-3.7; parameters: species or system Canis lupus familiaris
Canis familiaris [2] = organism: Canis familiaris; test: Concentration required for 20% increase in action potential duration of canine Purkinje fiber (intracellular electrophysiology) in vitro measured at 95% repolarization was reported. Range is between 0.01-0.03; format: functional, Canis lupus familiaris
Canis familiaris [3] = organism: Canis familiaris; test: Concentration required for 20% increase in the functional refractory period of canine ventricular muscle (extracellular electrophysiology) in vitro was reported. Range is between 1.2-150; parameters: species or system Canis lupus familiaris
Canis familiaris [4] = test: Efficacy in blocking sustained ventricular tachycardia (rate>250 bpm) elicited by programmed electrical stimulation in anesthetized dogs after iv administration of 0.5 mg/kg; no. of successful exp / total no. of exp = 4/4; format: functional, Canis lupus familiaris, Cardiac ventricle
Canis familiaris [5] = organism: Canis familiaris; test: Concentration required for 20% increase in the functional refractory period of canine ventricular muscle (extracellular electrophysiology) in vitro was reported; parameters: species or system Canis lupus familiaris
Canis familiaris [6] = test: Efficacy in blocking sustained ventricular tachycardia (rate>250 bpm) elicited by programmed electrical stimulation in anesthetized dogs after iv administration of dose 1.0 mg/kg; no. of successful exp / total no. of exp = 3/4; format: functional, Canis lupus familiaris, Cardiac ventricle
Canis familiaris [7] = organism: Canis familiaris; test: Concentration required for 20% increase in action potential duration of canine Purkinje fiber (intracellular electrophysiology) in vitro measured at 95% repolarization was reported. Range is between 0.2-0.5; format: functional, Canis lupus familiaris
Canis familiaris [8] = test: Efficacy in blocking sustained ventricular tachycardia (rate>250 bpm) elicited by programmed electrical stimulation in conscious dogs after iv administration of 0.8 mg/kg; no. of successful exp / total no. of exp = 5/5; format: functional, Canis lupus familiaris, Cardiac ventricle
Canis familiaris [9] = organism: Canis familiaris; test: Concentration required for 20% increase in action potential duration of canine Purkinje fiber (intracellular electrophysiology) in vitro measured at 95% repolarization was reported. Range is between 1.8-2.0; format: functional, Canis lupus familiaris
Canis familiaris [10] = test: Efficacy in blocking sustained ventricular tachycardia (rate>250 bpm) elicited by programmed electrical stimulation in conscious dogs after iv administration of dose 0.5 mg/kg; no. of successful exp / total no. of exp = 4/4; format: functional, Canis lupus familiaris, Cardiac ventricle
[11] = pKa2 was determined; format: physicochemical; settings: read-out: pKa2
Canis familiaris [12] = test: Efficacy in blocking sustained ventricular tachycardia (rate>250 bpm) elicited by programmed electrical stimulation in conscious dogs. Administered orally at a dose of 2.5 mg/kg after iv administration; no. of successful exp / total no. of exp = 5 /6; format: functional, Canis lupus familiaris, Cardiac ventricle; settings: route oral
Canis familiaris [13] = test: Efficacy in blocking sustained ventricular tachycardia (rate>250 bpm) elicited by programmed electrical stimulation in 4 anesthetized dogs after iv administration of dose 1 mg/kg; no. of successful exp / total no. of exp = 4/4; format: functional, Canis lupus familiaris, Cardiac ventricle
Mus musculus = test: Acute toxicity after intraperitoneal administration in mouse was determined; range 250-300 mg/kg; format: functional; settings: ip
[14] = Half life period was determined; settings: dog
[15] = pKa1 was determined; format: physicochemical; settings: read-out: pKa1
Canis familiaris [16] = organism: Canis familiaris; test: Concentration required for 20% increase in action potential duration of canine Purkinje fiber (intracellular electrophysiology) in vitro measured at 95% repolarization was reported. RAnge is between 2.0-11.4; format: functional, Canis lupus familiaris
Canis familiaris [17] = organism: Canis familiaris; test: Concentration required for 20% increase in the functional refractory period of canine ventricular muscle (extracellular electrophysiology) in vitro was reported. Range is between 9-35; parameters: species or system Canis lupus familiaris
[18] = Bioavailability after peroral administration (3 mg/kg) in dog was determined; Range 41-98%; format: ADME, organism-based, Canis lupus familiaris; settings: in vivo, po, read-out: Bioavailabiility
Canis familiaris [19] = organism: Canis familiaris; test: Concentration required for 20% increase in the functional refractory period of canine ventricular muscle (extracellular electrophysiology) in vitro was reported; NR means not reached; settings: Canis lupus familiaris
Canis familiaris [20] = organism: Canis familiaris; test: Concentration required for 20% increase in action potential duration of canine Purkinje fiber (intracellular electrophysiology) in vitro measured at 95% repolarization was reported;NR means not reached; format: functional; settings: Canis lupus familiaris
Canis familiaris [21] = organism: Canis familiaris; test: Concentration required for 20% increase in action potential duration of canine Purkinje fiber (intracellular electrophysiology) in vitro measured at 95% repolarization was reported. Range is between 1.0-34; format: functional, Canis lupus familiaris
Canis familiaris [22] = test: Efficacy in blocking sustained ventricular tachycardia (rate>250 bpm) elicited by programmed electrical stimulation in anesthetized dogs after iv administration of dose 1.4 mg/kg; no. of successful exp / total no. of exp = 3/5; format: functional, Canis lupus familiaris, Cardiac ventricle
Canis familiaris [23] = organism: Canis familiaris; test: Concentration required for 20% increase in the functional refractory period of canine ventricular muscle (extracellular electrophysiology) in vitro was reported. Range is between 1.6-25; parameters: species or system Canis lupus familiaris
Canis familiaris [24] = test: Efficacy in blocking sustained ventricular tachycardia (rate>250 bpm) elicited by programmed electrical stimulation in anesthetized dogs after iv administration of dose 0.8 mg/kg; no. of successful exp / total no. of exp = 5/9; format: functional, Canis lupus familiaris, Cardiac ventricle
Canis familiaris [25] = organism: Canis familiaris; test: Concentration required for 20% increase in action potential duration of canine Purkinje fiber (intracellular electrophysiology) in vitro measured at 95% repolarization was reported. Range is between 0.2-5; format: functional, Canis lupus familiaris
Canis familiaris [26] = organism: Canis familiaris; test: Concentration required for 20% increase in the functional refractory period of canine ventricular muscle (extracellular electrophysiology) in vitro was reported, range is 0.3-1.1; parameters: species or system Canis lupus familiaris
Canis familiaris [27] = test: Efficacy in blocking sustained ventricular tachycardia (rate>250 bpm) elicited by programmed electrical stimulation in anesthetized dogs after iv administration of dose 1 mg/kg; no. of successful exp / total no. of exp = 2/7; format: functional, Canis lupus familiaris, Cardiac ventricle
Canis familiaris [28] = test: Efficacy in blocking sustained ventricular tachycardia (rate>250 bpm) elicited by programmed electrical stimulation in conscious dogs after iv administration of dose 3 mg/kg; no. of successful exp / total no. of exp = 4/4; format: functional, Canis lupus familiaris, Cardiac ventricle
Canis familiaris [29] = organism: Canis familiaris; test: Concentration required for 20% increase in the functional refractory period of canine ventricular muscle (extracellular electrophysiology) in vitro was reported. Range is between 9-4000; parameters: species or system Canis lupus familiaris
Canis familiaris [30] = organism: Canis familiaris; test: Concentration required for 20% increase in action potential duration of canine Purkinje fiber (intracellular electrophysiology) in vitro measured at 95% repolarization was reported. Range is between 9-63; format: functional, Canis lupus familiaris
Canis familiaris [31] = organism: Canis familiaris; test: Concentration required for 20% increase in the functional refractory period of canine ventricular muscle (extracellular electrophysiology) in vitro was reported. Range is between 5.6-800; parameters: species or system Canis lupus familiaris
Canis familiaris [32] = test: Efficacy in blocking sustained ventricular tachycardia (rate>250 bpm) elicited by programmed electrical stimulation in anesthetized dogs after iv administration of dose 9 mg/kg; no. of successful exp / total no. of exp = 4/4; format: functional, Canis lupus familiaris, Cardiac ventricle
Canis familiaris [33] = organism: Canis familiaris; test: Concentration required for 20% increase in action potential duration of canine Purkinje fiber (intracellular electrophysiology) in vitro measured at 95% repolarization was reported. NR means 10% increase in APD95 (C10APD95) was observed at 30 um(22; format: functional; settings: Canis lupus familiaris
Canis familiaris [34] = test: Efficacy in blocking sustained ventricular tachycardia (rate>250 bpm) elicited by programmed electrical stimulation in conscious dogs after iv administration of dose 1 mg/kg; no. of successful exp / total no. of exp = 5/6; format: functional, Canis lupus familiaris, Cardiac ventricle
Canis familiaris [35] = organism: Canis familiaris; test: Concentration required for 20% increase in action potential duration of canine Purkinje fiber (intracellular electrophysiology) in vitro measured at 95% repolarization was reported. Range is between 0.03-2; format: functional, Canis lupus familiaris
Canis familiaris [36] = organism: Canis familiaris; test: Decrease in Vmax in isolated canine Purkinje fibers at 10 uM; format: functional, Canis lupus familiaris, Purkinje fiber
Canis familiaris [37] = test: Efficacy in blocking sustained ventricular tachycardia (rate>250 bpm) elicited by programmed electrical stimulation in anesthetized dogs after iv administration of dose 0.3 mg/kg; no. of successful exp / total no. of exp = 7/10; format: functional, Canis lupus familiaris, Cardiac ventricle
Canis familiaris [38] = organism: Canis familiaris; test: Concentration required for 20% increase in the functional refractory period of canine ventricular muscle (extracellular electrophysiology) in vitro was reported;NR=at 10 uM the FRP was increased 13%; settings: Canis lupus familiaris
Canis familiaris [39] = organism: Canis familiaris; test: Concentration required for 20% increase in the functional refractory period of canine ventricular muscle (extracellular electrophysiology) in vitro was reported;NR means not reached; settings: Canis lupus familiaris
Canis familiaris [40] = organism: Canis familiaris; test: Concentration required for 20% increase in action potential duration of canine Purkinje fiber (intracellular electrophysiology) in vitro measured at 95% repolarization was reported; NR means not reached; format: functional; settings: Canis lupus familiaris
Canis familiaris [41] = organism: Canis familiaris; test: Concentration required for 20% increase in action potential duration of canine Purkinje fiber (intracellular electrophysiology) in vitro measured at 95% repolarization was reported. Range is between 0.08-5; format: functional, Canis lupus familiaris
Canis familiaris [42] = organism: Canis familiaris; test: Concentration required for 20% increase in the functional refractory period of canine ventricular muscle (extracellular electrophysiology) in vitro was reported. Range is between 0.8-11; parameters: species or system Canis lupus familiaris

Structure (SMILES): CCCCCCCN(CC)CCNC(=O)c1ccc(NS(C)(=O)=O)cc1
- C20 FRP (Canis familiaris [1]): 0.5 µM
- C20 APD95 (Canis familiaris [2]): 0.02 µM

Structure (SMILES): CCN(CC)C1CCC(NC(=O)c2ccc(NS(C)(=O)=O)cc2)CC1.Cl (configuration not stated)
- C20 FRP (Canis familiaris [3]): 3 µM
- Efficacy (Canis familiaris [4]): 4
- C20 FRP (Canis familiaris [5]): 40 µM
- Efficacy (Canis familiaris [6]): 3
- C20 APD95 (Canis familiaris [7]): 0.4 µM
- Efficacy (Canis familiaris [8]): 5
- C20 APD95 (Canis familiaris [9]): 1.9 µM
- Efficacy (Canis familiaris [10]): 4

Structure (SMILES): CCN(CC)CCNC(=O)c1ccc(NS(C)(=O)=O)cc1.Cl [SEMATILIDE HYDROCHLORIDE]
- pKa [11]: 9.51
- Efficacy (Canis familiaris [12]): 5
- Efficacy (Canis familiaris [13]): 4
- LD50 (Mus musculus): 250 mg/kg
- half-life [14]: 2.7 h
- pKa [15]: 7.6
- C20 APD95 (Canis familiaris [16]): 3.5 µM
- C20 FRP (Canis familiaris [17]): 17 µM
- bioavailability [18]: 41%

Structure (SMILES): CCN(CC)CCNC(=O)c1ccc(N(C)S(C)(=O)=O)cc1
- C20 FRP (Canis familiaris [19]): Not reached
- C20 APD95 (Canis familiaris [20]): Not reached

Structure (SMILES): CCN(CC)CCCNC(=O)c1ccc(NS(C)(=O)=O)cc1
- C20 APD95 (Canis familiaris [21]): 2 µM
- Efficacy (Canis familiaris [22]): 3
- C20 FRP (Canis familiaris [23]): 4 µM

Structure (SMILES): C=CCN(CCN(CC)CC)C(=O)c1ccc(NS(C)(=O)=O)cc1
- Efficacy (Canis familiaris [24]): 5
- C20 APD95 (Canis familiaris [25]): 0.5 µM
- C20 FRP (Canis familiaris [26]): 0.5 µM

Structure (SMILES): CC(C)NCC(O)c1ccc(NS(C)(=O)=O)cc1 (racemic) [SOTALOL]
- Efficacy (Canis familiaris [27]): 2
- Efficacy (Canis familiaris [28]): 4
- C20 FRP (Canis familiaris [29]): 52 µM
- C20 APD95 (Canis familiaris [30]): 22 µM

Structure (SMILES): CCN(CC)CCNC(=O)c1ccc(NC(C)=O)cc1 [ACECAINIDE]
- C20 FRP (Canis familiaris [31]): 60 µM
- Efficacy (Canis familiaris [32]): 4
- C20 APD95 (Canis familiaris [33]): Partially active

Structure (SMILES): CCCCCCC[N+](CC)(CC)CCCCc1ccc(Cl)cc1 [CLOFILIUM]
- Efficacy (Canis familiaris [34]): 5
- C20 APD95 (Canis familiaris [35]): 0.2 µM
- delta Vmax (Canis familiaris [36]): -18%
- Efficacy (Canis familiaris [37]): 7
- C20 FRP (Canis familiaris [38]): Partially active

Structure (SMILES): CCNCCNC(=O)c1ccc(NS(C)(=O)=O)cc1
- C20 APD95 (Canis familiaris [20]): Not reached
- C20 FRP (Canis familiaris [39]): Not reached

Structure (SMILES): CCN(CC)CCNC(=O)c1ccc(NS(=O)(=O)CC)cc1
- C20 APD95 (Canis familiaris [40]): Not reached
- C20 FRP (Canis familiaris [19]): Not reached

Structure (SMILES): CCCCCCCNCCNC(=O)c1ccc(NS(C)(=O)=O)cc1.Cl
- C20 APD95 (Canis familiaris [41]): 0.2 µM
- C20 FRP (Canis familiaris [42]): 4 µM

Structure (SMILES): CCN(CC)CCNC(=O)c1ccc(NS(=O)(=O)C(F)(F)F)cc1
- C20 APD95 (Canis familiaris [20]): Not reached
- C20 FRP (Canis familiaris [39]): Not reached
